The text below walks through data of patent publication US8466176B2 (priority 2008, dated 2013).

The structures appear in SMILES notation. Where two headings read alike, the source gives them in different places. Where only a bound is given, the exact number is not on record here.

Data set [1] can be described thus: Measurement of logP values according EEC directive 79/831 Annex V.A8 by HPLC on reversed phase columns. Type of data set: physicochemical. Conditions: for chromatographic logP: reversed phase HPLC columns, read-out: log p.
A short description of data set [2]: logP by HPLC on reversed phase columns, method [a], pH 2.3 with 0.1% phosphoric acid and acetonitrile. Type of data set: physicochemical. Conditions: method [a]: pH 2.3, 0.1% phosphoric acid and acetonitrile as eluent, EEC directive 79/831 Annex V.A8, reversed phase HPLC; for chromatographic logP: reversed phase HPLC columns, read-out: log p.
Data set [3] can be described thus: logP(HCOOH) reported with HPLC/MS.
The next data set deals with Phytophthora infestans. Briefly: whole plant or invertebrate. Type of data set: in vivo. Conditions: in Solanum lycopersicum, 168 h, read-out: efficacy.
For data set [4] the following is noted: method [c]: LC-MS at pH 7.8, 0.001 molar ammonium hydrogen carbonate in water, linear gradient 10% to 95% acetonitrile.
The mark [5] stands for this setting: method [a]: pH 2.3 with 0.1% phosphoric acid and acetonitrile as eluent.
Setting [6] is: HCOOH (formic acid), logP(HCOOH), HPLC/MS.
[7] abbreviates: reversed phase HPLC column, pH 2.7, log p, method [b]: LC-MS at pH 2.7, 0.1% formic acid in water and acetonitrile, linear gradient 10% to 95% acetonitrile.
Where [8] appears, read: no method mark printed in the cell.

Turning to `Cn1nnnc1C(=NOCc1csc(/C=C/CC2CCCC2)n1)c1ccccc1` [Example 279], the log p in data set [1] (setting [5]) is 5.14^[a].

As for `Cn1nnnc1C(=NOCc1cccc(NCC2CCCC2)n1)c1ccccc1` [Example 288], in data set [1] (setting [5]), the log p is 2.3^[a].

`C#Cc1cccc(CON=C(c2ccccc2)c2nnnn2C)n1` [Example 19]: the log p in data set [2] was 2.69^[a];; in data set [3] (method [b]: LC-MS at pH 2.7, 0.1% formic acid in water and acetonitrile, linear gradient 10% to 95% acetonitrile), 2.7^[b].

Turning to `COc1ccc(CON=C(c2ccccc2)c2nnnn2C)nc1C#CC1CC1` [Example 126, N-{[6-(cyclopropylethynyl)-5-methoxypyridin-2-yl]methoxy}-1-(1-methyl-1H-tetrazol-5-yl)-1-phenylmethanimine], the chromatographic logP in data set [3] (setting [6]) and in data set [3] (setting [7]) was 3.23 throughout. Also, in the data set with Phytophthora infestans, the pest or weed control at 500 ppm is at least 70%.

Regarding `CCCCC#Cc1ccc(F)c(CON=C(c2ccccc2)c2nnnn2C)n1` [Example 99, N-{[3-fluoro-6-(hex-1-yn-1-yl)pyridin-2-yl]methoxy}-1-(1-methyl-1H-tetrazol-5-yl)-1-phenylmethanimine], the chromatographic logP in data set [3] (logP(HCOOH), HPLC/MS) amounted to 4.41; in data set [3] (setting [7]) it was 4.41. Also, in the data set on Phytophthora infestans, the pest or weed control at 500 ppm is at least 70%.

For the compound `Cn1nnnc1C(=NOCc1cccc(C2OCCO2)n1)c1ccccc1` [Example 160, N-{[6-(1,3-dioxolan-2-yl)pyridin-2-yl]methoxy}-1-(1-methyl-1H-tetrazol-5-yl)-1-phenylmethanimine], the chromatographic logP in data set [3] (HPLC, logP(HCOOH), HPLC/MS) was 2.47; in data set [3] (reversed phase HPLC column, pH 7.8, log p, method [c]: LC-MS, pH 7.8 with 0.001 molar ammonium hydrogen carbonate solution in water, linear gradient 10% to 95% acetonitrile), 2.47. The pest or weed control at 500 ppm with Phytophthora infestans was at least 70%.

`Cn1nnnc1C(=NOCc1cccc(/C=C/C2CCCCC2)n1)c1ccccc1` [Example 93, N-({6-[(E)-2-cyclohexylvinyl]pyridin-2-yl}methoxy)-1-(1-methyl-1H-tetrazol-5-yl)-1-phenylmethanimine]: the chromatographic logP in data set [2] worked out at 5.05; in data set [3] (HPLC, logP(HCOOH), HPLC/MS) it was 5.05. Also, the pest or weed control at 500 ppm in the data set on Phytophthora infestans was at least 70%.

With `Cn1nnnc1C(=NOCc1cccc(C=NOC2CCCCC2)n1)c1ccccc1` [Example 274, N-[(6-{[(cyclohexyloxy)imino]methyl}pyridin-2-yl)methoxy]-1-(1-methyl-1H-tetrazol-5-yl)-1-phenylmethanimine], the chromatographic logP in data set [1] (setting [5]) amounted to 4.89; in data set [3] (logP(HCOOH), HPLC/MS), 4.89.

With `CCCC/C=C/c1nc(CON=C(c2ccccc2)c2nnnn2C)cs1` [Example 278, N-({2-[(1E)-hex-1-en-1-yl]-1,3-thiazol-4-yl}methoxy)-1-(1-methyl-1H-tetrazol-5-yl)-1-phenylmethanimine], the chromatographic logP in data set [1] (setting [5]) was 4.56; in data set [3] (HPLC, logP(HCOOH), HPLC/MS) it was 4.56.

Consider `Cn1nnnc1C(=NOCc1csc(/C=C/C2CC2)n1)c1ccccc1` [Example 277], for which, in data set [1] (setting [5]), the log p is 3.58^[a].

The compound `Cn1nnnc1C(=NOCc1cccc(Br)n1)c1ccccc1` (single isomer, unassigned) [Example 306] displayed a log p in data set [1] (setting [8]) of 3.19.

Turning to `CCCCC1CC(c2cccc(CON=C(c3ccccc3)c3nnnn3C)n2)=NO1` (stereo not drawn) [Example 276], the log p in data set [1] (setting [5]) is 4.26^[a].

As for `Cn1nnnc1C(=NOCc1nc(C#CC2CC2)sc1Cl)c1ccccc1` [Example 114, N-{[5-chloro-2-(cyclopropylethynyl)-1,3-thiazol-4-yl]methoxy}-1-(1-methyl-1H-tetrazol-5-yl)-1-phenylmethanimine], the chromatographic logP in data set [3] (setting [6]) and in data set [3] (setting [7]) was 4.59 in each case. Moreover, in the data set with Phytophthora infestans, the pest or weed control at 500 ppm was at least 70%.

`Cn1nnnc1C(=NOCc1cccc(Br)n1)c1ccccc1` (single isomer, unassigned) [Example 307]: the log p in data set [1] (setting [8]) was 3.00.

For `Cn1nnnc1C(=NOCc1csc(Br)n1)c1ccccc1` [Example 32, N-[(2-bromo-1,3-thiazol-4-yl)methoxy]-1-(1-methyl-1H-tetrazol-5-yl)-1-phenyl-methanimine], the chromatographic logP in data set [3] (logP(HCOOH), HPLC/MS) was 3.11. Besides, the pest or weed control at 500 ppm in the data set with Phytophthora infestans is at least 70%.

On to `CCCCCCOc1cccc(CON=C(c2ccccc2)c2nnnn2C)n1` [Example 20, N-{[6-(hexyloxy)pyridin-2-yl]methoxy}-1-(1-methyl-1H-tetrazol-5-yl)-1-phenylmethanimine], for which the chromatographic logP in data set [2] was 5.39; in data set [3] (logP(HCOOH), HPLC/MS), 5.39.

Regarding `CCCCC#Cc1cccc(CON=C(c2ccccc2)c2nnnn2C)n1` [Example 23, N-{[6-(hex-1-yn-1-yl)pyridin-2-yl]methoxy}-1-(1-methyl-1H-tetrazol-5-yl)-1-phenylmethanimine], the pest or weed control at 500 ppm with Phytophthora infestans was at least 70%.

As to `COCC#Cc1cccc(CON=C(c2ccccc2)c2nnnn2C)n1` [Example 24], the log p in data set [4] was 3.04^[c].

As for `Cn1nnnc1C(=NOCc1nc(Cl)sc1Cl)c1ccccc1` [Example 113, N-[(2,5-dichloro-1,3-thiazol-4-yl)methoxy]-1-(1-methyl-1H-tetrazol-5-yl)-1-phenylmethanimine], the chromatographic logP in data set [3] (setting [6]) and in data set [3] (setting [7]) was 3.67 throughout. Further, the pest or weed control at 500 ppm in the data set with Phytophthora infestans is at least 70%.

`Cn1nnnc1C(=NOCc1cccc(NCCC2CCCCC2)n1)c1ccccc1` [Example 80, N-(2-cyclohexylethyl)-6-[({[(1-methyl-1H-tetrazol-5-yl)(phenyl)methylene]amino}oxy)methyl]pyridin-2-amine]: the pest or weed control at 500 ppm with Phytophthora infestans is at least 70%.

Take `Cn1nnnc1C(=NOCc1cccc(NCC2CCCCC2)n1)c1ccccc1` [Example 289]: the log p in data set [1] (setting [5]) is 2.43^[a].

For the compound `Cn1nnnc1C(=NOCc1csc(C#CC2CC2)n1)c1ccccc1` [Example 70, N-{[2-(cyclopropylethynyl)-1,3-thiazol-4-yl]methoxy}-1-(1-methyl-1H-tetrazol-5-yl)-1-phenylmethanimine], the chromatographic logP in data set [2] and in data set [3] (setting [6]) was 3.58 throughout. Besides, the pest or weed control at 500 ppm in the data set on Phytophthora infestans was at least 70%.

In the case of `CCCCCSc1cccc(CON=C(c2ccccc2)c2nnnn2C)n1` [Example 74, 1-(1-methyl-1H-tetrazol-5-yl)-N-{[6-(pentylsulfanyl)pyridin-2-yl]methoxy}-1-phenylmethanimine], the chromatographic logP in data set [2] was 5.14; in data set [3] (HPLC/MS, logP(HCOOH)) it was 5.97.

For the compound `Cn1nnnc1C(=NOCc1cccc(CO)n1)c1ccccc1` [Example 275, {6-[({[(1-methyl-1H-tetrazol-5-yl)(phenyl)methylene]amino}oxy)methyl]pyridin-2-yl}methanol], the chromatographic logP in data set [1] (setting [5]) and in data set [3] (setting [6]) was 1.76 each time.

Regarding `Cn1nnnc1C(=NOCc1csc(C#CCC2CCCCC2)n1)c1ccccc1` [Example 67], the log p in data set [2] is 5.32^[a].

Regarding `Cn1nnnc1C(=NOCc1cccc(-c2cccc(CON=C(c3ccccc3)c3nnnn3C)n2)n1)c1ccccc1` [Example 21], in data set [2], the log p was 4.36^[a].

Take `CCCCOc1cccc(-c2cccc(CON=C(c3ccccc3)c3nnnn3C)n2)c1` [Example 44]: the log p in data set [2] is 5.2^[a].

As for `Cn1nnnc1C(=NOCc1csc(/C=C/Cc2ccccc2)n1)c1ccccc1` [Example 88], the log p in data set [2] is 4.29^[a].

As to `COCC#Cc1nc(CON=C(c2ccccc2)c2nnnn2C)cs1` [Example 71], the log p in data set [2] is 2.92^[a].

Consider `CCCCC/C=C/c1nc(CON=C(c2ccccc2)c2nnnn2C)cs1` [Example 81], for which the log p in data set [2] was 5.05^[a].
